8 compounds from publication PMC5748833, “Synthesis and Biological Evaluation of Novel Hybrid Molecules Containing Purine, Coumarin and Isoxazoline or Isoxazole Moieties” (The Open Medicinal Chemistry Journal, 2017) can be followed below.

A short description of data set [1]: Competition of the tested compounds with DMSO for hydroxyl radicals. Particulars: 100 μM compound, Fe3+/ascorbic acid, 30 min, 37°C. How it is done: 2.2.2.2 Competition of the tested compounds with DMSO for hydroxyl radicals
The hydroxyl radicals generated by the Fe ^3+ /ascorbic acid system, were detected according to Nash, by the determination of formaldehyde produced from the oxidation of DMSO. The reaction mixture contained EDTA (0.1 mM), Fe ^3+ (167 μM), DMSO (33 mM) in phosphate buffer (50 mM, pH 7.4), the tested compounds (concentration 0.1mM) and ascorbic acid (10 mM). After 30 min of incubation (37°C) the reaction was stopped with CCl3COOH (17% w/v) (Table 5). Trolox was used as a standard.
Superoxide (O2^-.) anion and hydroxyl radical (^.OH) are free radical species of potential importance. In the acidic conditions of ischemic brain, O2^-. is probably protonated to give HO2^-. species. Iron released from damaged brain cells is more likely to be readily available to catalyze the generation of OH radicals. Among the ROS, the hydroxyl (^•OH) free radical is possibly the most toxic, as it reacts with a number of biological important molecules. Polyunsaturated fatty acids are found in high concentrations in the CNS, and are particularly vulnerable by free radicals. Thus, we tried to test the ability of our compounds to scavenge hydroxyl radicals. […] All the derivatives of series 13 (except of 13i) present high antioxidant activity (80-100%) which is not able to be correlated with any specific structural characteristic since all contain a coumarin, a purine and an isoxazolyl moiery. […] It seems that the overall molar configuration influences the response. However, antioxidants with hydrophilic or lipophilic character are both needed to act as radical scavengers in the aqueous phase or as chain-breaking antioxidants in biological membranes.

A short description of data set [2]: Inhibition of linoleic acid lipid peroxidation (AAPH). Particulars: 100 μM compound, 37°C. How it is done:
2.2.2.3 Inhibition of linoleic acid lipid peroxidation
Production of conjugated diene hydroperoxide by oxidation of linoleic acid sodium salt in an aqueous solution was monitored at 234 nm. 2,2’-Azobis(2-amidinopropane) dihydrochloride (AAPH) was used as a free radical initiator. 10 μl of the 16 mM linoleic acid sodium salt solution was added to the UV cuvette containing 0.93 ml of 0.05 M phosphate buffer, pH 7.4 prethermostated at 37°C. The oxidation reaction was initiated at 37°C under air by the addition of 50 μl of 40 mM AAPH solution. Oxidation was carried out in the presence of 10 μl of the examined compounds (stock solution in DMSO). In the assay without antioxidant, lipid oxidation was measured in the presence of the same level of DMSO. The rate of oxidation at 37°C was monitored by recording the increase in absorption at 234 nm caused by conjugated diene hydroperoxides (Table 5). Trolox was used as a standard.
Anti-lipid peroxidation activity. The water-soluble azo compound AAPH has been extensively used as a clean and controllable source of thermally produced alkyl peroxyl free radicals, through spontaneous thermal decomposition. […] In the AAPH assay, the highly reactive alkylperoxyl radicals are intercepted mainly by a hydrogen atom transfer (HAT) from the antioxidant.

A short description of data set [3]: Reducing activity of the stable radical DPPH. Particulars: 100 μM compound, after 20 min. The protocol: 2.2.2.1 Determination of the reducing activity of the stable radical 1, 1-diphenyl-picrylhydrazyl (DPPH)
To a solution of DPPH (100μM) in absolute ethanol an equal volume of the compounds dissolved in ethanol was added. As control solution ethanol was used. The concentration of the solutions of the compounds was 100μM. After 20 and 60 min at room temperature the absorbance was recorded at 517 nm (Table 5). NDGA was used as a standard.
The compounds were studied for their antioxidant activity by the use of the stable 2,2-diphenyl-1-picrylhydrazyl radical (DPPH) at concentration 0.1mM after 20 min. […] This purple colour generally disappears in the presence of an antioxidant. The reduction of absorbance is a measure of the free DPPH due to the action of the antioxidant. The antioxidant activity was expressed as the RA% (Reducing Activity). […] Within the group of derivatives 4 the presence of the morpholinyl or piperidinyl rings at position A as well as the carbonyl group at position B, hinder the interaction of the compounds to the free stable radical DPPH.

Data set [4] deals with T1, soybean lipoxygenase (Glycine max, UniProt P08170).
T1 construct: purchased Sigma Chemical, Co. (St. Louis, MO, USA)
T1 sequence (P08170 1-839): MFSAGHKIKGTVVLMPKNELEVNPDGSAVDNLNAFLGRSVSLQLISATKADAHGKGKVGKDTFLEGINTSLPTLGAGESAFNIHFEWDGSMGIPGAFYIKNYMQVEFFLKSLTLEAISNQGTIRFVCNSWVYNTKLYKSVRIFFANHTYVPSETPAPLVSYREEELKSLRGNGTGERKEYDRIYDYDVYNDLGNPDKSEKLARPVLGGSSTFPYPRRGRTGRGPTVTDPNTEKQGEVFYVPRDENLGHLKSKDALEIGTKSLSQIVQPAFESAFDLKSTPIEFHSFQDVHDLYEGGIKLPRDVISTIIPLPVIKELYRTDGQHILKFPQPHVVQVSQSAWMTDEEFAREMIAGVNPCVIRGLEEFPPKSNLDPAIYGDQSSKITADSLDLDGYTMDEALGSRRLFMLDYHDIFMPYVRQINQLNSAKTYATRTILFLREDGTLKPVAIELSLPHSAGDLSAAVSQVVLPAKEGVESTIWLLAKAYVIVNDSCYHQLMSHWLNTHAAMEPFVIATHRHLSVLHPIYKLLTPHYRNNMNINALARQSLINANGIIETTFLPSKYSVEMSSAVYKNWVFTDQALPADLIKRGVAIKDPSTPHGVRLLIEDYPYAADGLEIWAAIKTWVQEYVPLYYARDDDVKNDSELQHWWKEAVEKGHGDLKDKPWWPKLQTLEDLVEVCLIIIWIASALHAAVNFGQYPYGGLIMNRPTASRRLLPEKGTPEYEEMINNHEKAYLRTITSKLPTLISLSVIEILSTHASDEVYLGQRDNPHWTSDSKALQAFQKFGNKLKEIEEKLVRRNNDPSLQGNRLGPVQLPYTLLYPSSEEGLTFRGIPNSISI
Put plainly: Soybean lipoxygenase inhibition in vitro. The data set is classed as biochemical. Particulars: for IC50: read-out: LOX IC50 μΜ. The protocol:
2.2.2.4 Soybean lipoxygenase inhibition study in vitro [14]
In vitro study was evaluated as reported previously. The tested compounds dissolved in ethanol were incubated at room temperature with sodium linoleate (0.1 mM) and 0.2 ml of enzyme solution (1/9 x10^-4 w/v in saline). […] Several concentrations were used for the determination of IC50 values (Table 5).
LO is the key enzyme in leukotriene biosynthesis. Leukotrienes derived from the biotransformation of arachidonic acid catalyzed by 5-lipoxygenase (5-LO), are important inflammatory mediators implicated in several diseases. LOs play a role in membrane lipid peroxidation by forming hydroperoxides in the lipid bilayer. […] Most of the LO inhibitors are antioxidants or free radical scavengers, since lipoxygenation occurs via a carbon-centered radical. The evaluation of the novel coumarin hybrids against soybean lipoxygenase LO was accomplished by the UV-based enzyme assay.

What is called melting point is the temperature of the solid-liquid transition. Compound `Cc1cc(=O)oc2cc(OCC3CC(Cn4cnc5c(N6CCCCC6)ncnc54)=NO3)ccc12` (stereo not shown) [4c] displayed a melting point of 186 to 187 °C. For the same compound, in data set [1] (100 µM), the “∙ΟΗ % @ 100μΜ (hydroxyl radical scavenging, percent inhibition of formaldehyde production)” value was “did not present any activity and no”. Besides, the “LP % @ 100μΜ (inhibition of lipid peroxidation)” value in data set [2] was found to be 65%. The “RA% @ 100μΜ (reducing activity, DPPH)” value in data set [3] came out at 17%. For the same compound, the “%LOX @ 100μΜ” value in data set [4] (100 μM compound) was “no”.
The compound `Cc1cc(=O)oc2cc(OCCC3CC(Cn4cnc5c(N6CCCC6)ncnc54)=NO3)ccc12` (stereo not shown) [4j] displayed a melting point of 178 to 180 °C. Also, the “∙ΟΗ % @ 100μΜ (hydroxyl radical scavenging, percent inhibition of formaldehyde production)” value in data set [1] (100 µM) is “did not present any activity and no”. In addition, in data set [2], the “LP % @ 100μΜ (inhibition of lipid peroxidation)” value was found to be 32%. Also, the “RA% @ 100μΜ (reducing activity, DPPH)” value in data set [3] is 44%. Moreover, the inhibition at 100 µM in data set [4] (read-out: %LOX @ 100μΜ) came to 37%.
One may read the IC50 as the midpoint of a concentration-inhibition curve. Take `O=C(Oc1ccc2oc(=O)ccc2c1)C1CC(Cn2cnc3c(N4CCCCC4)ncnc32)=NO1` (stereo not shown) [4n]: the melting point lay within 175 to 177 °C. In addition, in data set [1] (100 µM), the “∙ΟΗ % @ 100μΜ (hydroxyl radical scavenging, percent inhibition of formaldehyde production)” value is “did not present any activity and no”. Also, the “LP % @ 100μΜ (inhibition of lipid peroxidation)” value in data set [2] was “no”. The “RA% @ 100μΜ (reducing activity, DPPH)” value in data set [3] is recorded as 17%. Further, the IC50 in data set [4] is 35 µM.
`O=C(Oc1ccc2oc(=O)ccc2c1)C1CC(Cn2cnc3c(N4CCOCC4)ncnc32)=NO1` (stereo not shown) [4o] had a melting point of 184 to 185 °C. In data set [1] (100 µM), the “∙ΟΗ % @ 100μΜ (hydroxyl radical scavenging, percent inhibition of formaldehyde production)” value was “did not present any activity and no”. Moreover, the “LP % @ 100μΜ (inhibition of lipid peroxidation)” value in data set [2] amounted to 40%. Further, the “RA% @ 100μΜ (reducing activity, DPPH)” value in data set [3] is listed as 3%. For the same compound, in data set [4], the IC50 amounted to 60 µM.
`Cc1cc(=O)oc2cc(OCC3=NOC(Cn4cnc5c(N6CCCCC6)ncnc54)C3)ccc12` (stereo not shown) [11d] had a melting point of 144 to 145 °C. The “∙ΟΗ % @ 100μΜ (hydroxyl radical scavenging, percent inhibition of formaldehyde production)” value in data set [1] (100 µM) was “did not present any activity and no”. Besides, in data set [2], the “LP % @ 100μΜ (inhibition of lipid peroxidation)” value came out at 43%. The “RA% @ 100μΜ (reducing activity, DPPH)” value in data set [3] is on record as 13%. In addition, the IC50 in data set [4] is 48 µM.
The compound `O=c1ccc2ccc(OCc3cc(Cn4cnc5c(N6CCOCC6)ncnc54)on3)cc2o1` [15b] showed a melting point of 185 to 187 °C. In data set [1], the “∙ΟΗ % @ 100μΜ (hydroxyl radical scavenging, percent inhibition of formaldehyde production)” value was determined as 48%. Also, the “LP % @ 100μΜ (inhibition of lipid peroxidation)” value in data set [2] was 52%. Further, the “RA% @ 100μΜ (reducing activity, DPPH)” value in data set [3] is “no”. The IC50 in data set [4] amounted to 100 µM.
With `O=c1ccc2ccc(OCC3=NOC(n4cnc5c(N6CCCCC6)ncnc54)C3)cc2o1` (stereo not shown) [18a, 7-{[5-(6-piperidin-1-yl-9H-purin-9-yl)-4,5-dihydroisoxazol-3-yl]methoxy}-2H-chromen-2-one], the melting point was 197 to 199 °C. In addition, the “∙ΟΗ % @ 100μΜ (hydroxyl radical scavenging, percent inhibition of formaldehyde production)” value in data set [1] (100 µM) was “did not present any activity and no”. Also, the “LP % @ 100μΜ (inhibition of lipid peroxidation)” value in data set [2] is “No”. In data set [3], the “RA% @ 100μΜ (reducing activity, DPPH)” value was found to be 4%. Also, the 50% inhibitory concentration (IC50) in data set [4] is 90 µM.
`O=c1ccc2ccc(OCC3=NOC(n4cnc5c(N6CCOCC6)ncnc54)C3)cc2o1` (stereo not shown) [18b]: the melting point fell in the range of 205 to 206 °C. For the same compound, the “∙ΟΗ % @ 100μΜ (hydroxyl radical scavenging, percent inhibition of formaldehyde production)” value in data set [1] (100 µM) was “did not present any activity and no”. The “LP % @ 100μΜ (inhibition of lipid peroxidation)” value in data set [2] was 38%. Moreover, the “RA% @ 100μΜ (reducing activity, DPPH)” value in data set [3] is listed as 1%. For the same compound, the IC50 in data set [4] was determined as 100 µM.
